# Test results taken from patent publication US20240368151A1, “NOVEL ERGOLINES AND METHODS OF TREATING MOOD DISORDERS” (priority 2021, published 2024).
# What was measured:
# 5-HT2B receptor = 5-HT2B receptor (Homo sapiens (Human), UniProt P41595); assay: FLIPR Ca^2+ flux agonist assay at 5-HT2B; type: cell-based; conditions: HEK293
# Method: (§1) Functional Assays at 5-HT2A, 5-HT2B, and 5-HT1A. Agonist activity at 5-HT2A, 5-HT2B, and 5-HT1A receptors was determined using a FLIPR Ca^2+ flux assay at WuXi AppTec (Hong Kong) Limited according to their standard protocols. Briefly, stably transfected cells expressing the receptor of interest (HEK293 for 5-HT2A and 5-HT2B; CHO cells for 5-HT1A) were grown and plated in a 384 well plate and incubated at 37° C. and 5% CO2 overnight. A solution of 250 mM probenecid in 1 mL FLIPR assay buffer was prepared fresh. This was combined with a fluorescent dye (Fluo-4 Direct™) to make a final assay concentration of 2.5 mM. […] The fluorescent dye was then added to the assay plate along with assay buffer to a final volume of 40 μL. The cell plate was incubated for 50 min at 37° C. and 5% CO2 and placed into the FLIPR Tetra along with the compound plate. 10p L of references and compounds were then transferred from the compound plate into the cell plate and the fluorescent signal was read.
# 5-HT2A receptor = 5-HT2A receptor (Homo sapiens (Human), UniProt P28223); type: cell-based; conditions: Ca^2+ flux, HEK293
# Method: as §1
# [1] = Metabolic stability in rat liver microsomes (RLM); type: in vitro ADME; conditions: both sexes, rat, pooled rat liver microsomes, pH 7.4, NADPH
# [2] = Metabolic stability in human liver microsomes (HLM); type: in vitro ADME; conditions: both sexes, human, pooled human liver microsomes, pH 7.4, NADPH
# Description: HLM Stability. Pooled HLM from adult male and female donors (Corning 452117) were used.
# 5-HT1B receptor = 5-HT1B receptor (Homo sapiens (Human), UniProt P28222); assay: cAMP accumulation agonist assay at 5-HT1B; type: cell-based
# Method: Functional Assay at 5-HT1B. Agonist activity at 5-HT1B was determined using a cAMP accumulation protocol at WuXi AppTec (Hong Kong) Limited according to their standard protocols. Briefly, stably transfected cells were plated in an OptiPlate-384 well plate, incubated at RT for 60 mins, and cAMP standard solution (800 nM, 10 μL) was added to the blank well. Then, 10 μL detection reagent was added to each well, the plate incubated for 60 mins at RT, and the plate read using EnVision.
# 5-HT1A receptor = 5-HT1A receptor (Homo sapiens (Human), UniProt P08908); assay: FLIPR Ca^2+ flux agonist assay at 5-HT1A; type: cell-based; conditions: CHO cells
# Method: as §1
# [3] = Metabolic stability in mouse liver microsomes (MLM); type: in vitro ADME; conditions: mouse, pooled mouse liver microsomes, pH 7.4, MLM (CD-1), NADPH
# Description: MLM Stability Pooled MLM from CD-1 mice (BIOIVT M00501) were used.
# Sequence of 5-HT1B receptor (P28222 whole entry, looked up): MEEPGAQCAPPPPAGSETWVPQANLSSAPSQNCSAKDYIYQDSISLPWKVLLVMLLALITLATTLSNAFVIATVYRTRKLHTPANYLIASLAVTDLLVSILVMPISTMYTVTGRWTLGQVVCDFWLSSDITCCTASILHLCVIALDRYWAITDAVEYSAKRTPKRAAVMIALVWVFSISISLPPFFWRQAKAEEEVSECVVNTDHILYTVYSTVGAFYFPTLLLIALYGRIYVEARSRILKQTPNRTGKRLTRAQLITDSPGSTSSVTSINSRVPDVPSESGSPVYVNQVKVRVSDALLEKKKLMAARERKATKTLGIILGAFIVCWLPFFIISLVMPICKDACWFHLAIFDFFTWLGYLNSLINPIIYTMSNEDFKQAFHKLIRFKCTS
# Sequence of 5-HT2B receptor (P41595 whole entry, looked up): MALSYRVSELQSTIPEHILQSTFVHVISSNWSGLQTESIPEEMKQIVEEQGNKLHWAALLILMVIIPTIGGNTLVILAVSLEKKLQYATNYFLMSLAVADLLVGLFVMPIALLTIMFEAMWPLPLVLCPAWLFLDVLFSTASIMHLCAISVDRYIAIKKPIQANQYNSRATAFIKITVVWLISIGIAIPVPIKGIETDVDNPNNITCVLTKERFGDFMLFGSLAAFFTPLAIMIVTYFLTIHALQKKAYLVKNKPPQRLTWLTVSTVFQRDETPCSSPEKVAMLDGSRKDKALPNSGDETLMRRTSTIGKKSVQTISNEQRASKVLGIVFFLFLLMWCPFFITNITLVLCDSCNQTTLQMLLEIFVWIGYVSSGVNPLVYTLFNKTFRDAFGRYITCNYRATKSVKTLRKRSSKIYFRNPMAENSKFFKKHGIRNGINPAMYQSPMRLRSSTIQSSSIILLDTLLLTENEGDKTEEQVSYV
Structure (SMILES),5-HT2B % Act @ Max Dose (5-HT2B receptor) [%],5-HT2A % Act @ Max Dose (5-HT2A receptor) [%],half-life at 1 μM [1] [min],half-life at 1 μM [2] [min],5-HT1B % Act @ Max Dose (5-HT1B receptor) [%],5-HT1A % Act @ Max Dose (5-HT1A receptor) [%],half-life at 1 μM [3] [min]
"CCN(CC)C(=O)[C@@H]1C=C2c3cccc4[nH]cc(c34)C[C@H]2N(Cc2ccc(OC)cc2)C1 [Compound 19, (6aR,9R)-N,N-diethyl-7-(4-methoxybenzyl)-4,6,6a,7,8,9-hexahydroindolo[4,3-fg]quinoline-9-carboxamide]",2.44,70.54,10,16.8,71.08,−0.65,7.2
"CCN(CC)C(=O)[C@@H]1C=C2c3cccc4[nH]cc(c34)C[C@H]2N(CCc2ccccn2)C1 [Compound 23, (6aR,9R)-N,N-diethyl-7-(2-(pyridin-2-yl)ethyl)-4,6,6a,7,8,9-hexahydroindolo[4,3-fg]quinoline-9-carboxamide]",12.50,85.397,4.2,7.2,83.68,46.19,1.8
"CCN(CC)C(=O)[C@@H]1C=C2c3cccc4[nH]cc(c34)C[C@H]2N(Cc2cccc(OC)c2)C1 [Compound 18, (6aR,9R)-N,N-diethyl-7-(3-methoxybenzyl)-4,6,6a,7,8,9-hexahydroindolo[4,3-fg]quinoline-9-carboxamide]",4.69,61.09,5.3,13.6,83.31,28.93,2.6
"CCN(CC)C(=O)[C@@H]1C=C2c3cccc4[nH]cc(c34)C[C@H]2N(Cc2ccccc2O)C1 [Compound 16, (6aR,9R)-N,N-diethyl-7-(2-hydroxybenzyl)-4,6,6a,7,8,9-hexahydroindolo[4,3-fg]quinoline-9-carboxamide]",26.497,62.05,2.2,4.9,90.1,22.29,1.3
